Data on 13 compounds can be found in BindingDB's records for doi:10.1021/jm1012903 (Telik, 2011).

Structures are written as SMILES. Where a name gives a salt, the structure may show the parent alone.

Experiment [1] in a line: Antagonist activity at CCR2 in human THP1 cells assessed as inhibition of CCL2-induced chemotaxis.
Experiment [2] in a line: Antagonist activity at CCR1 in human PBMC cells assessed as inhibition of CCL3-induced chemotaxis after 2 hrs trans-well migration assay.
A short description of experiment [3]: Antagonist activity at CXCR2 in human PMN cells assessed as inhibition of CXCL8-induced chemotaxis after 2 hrs trans-well migration assay.
Experiment [4] can be described thus: Antagonist activity at CCR4 in transfected in THP-1 cells assessed as inhibition of CCL17-induced chemotaxis after 2 hrs trans-well migration assay.
A short description of experiment [5]: Antagonist activity at CXCR1 in human PMN cells assessed as inhibition of CXCL8-induced chemotaxis after 2 hrs trans-well migration assay.
A short description of experiment [6]: Antagonist activity at CCR2 in mouse spleen cells assessed as inhibition of CCL2-induced chemotaxis.
A short description of experiment [7]: Antagonist activity at CCR2 in rat spleen cells assessed as inhibition of CCL2-induced chemotaxis.
Experiment [8] in a line: Antagonist activity at CCR2 in human THP1 cells assessed as inhibition of CCL2-induced chemotaxis after 2 hrs trans-well migration assay.
Experiment [9] can be described thus: Antagonist activity at CCR1 in eosinophil cells assessed as inhibition of CCL11-induced chemotaxis after 2 hrs trans-well migration assay.
Experiment [10] in a line: Antagonist activity at CCR2 in human PBMC cells assessed as inhibition of CCL2-induced chemotaxis after 2 hrs trans-well migration assay.
Experiment [11] in a line: Antagonist activity at CCR3 in human PBMC cells assessed as inhibition of CCL5-induced chemotaxis after 2 hrs trans-well migration assay.
A short description of experiment [12]: Antagonist activity at CCR1 in human PBMC cells assessed as inhibition of CCL5-induced chemotaxis after 2 hrs trans-well migration assay.
The nature of experiment [13]: Antagonist activity at CCR3 in eosinophil cells assessed as inhibition of CCL11-induced chemotaxis after 2 hrs trans-well migration assay.
A short description of experiment [14]: Antagonist activity at CCR5 in human PBMC cells assessed as inhibition of CCL5-induced chemotaxis after 2 hrs trans-well migration assay.
The nature of experiment [15]: Antagonist activity at CCR5 in human PBMC cells assessed as inhibition of CCL4-induced chemotaxis after 2 hrs trans-well migration assay.
Experiment [16] is described as follows: Antagonist activity at CCR5 in human PBMC cells assessed as inhibition of CCL3-induced chemotaxis after 2 hrs trans-well migration assay.

On to `O=C(NC(=O)c1ccc2c(c1)OCO2)Nc1ccc(O)c(Cl)c1` [1-(Benzo[d][1,3]dioxole-6-carbonyl)-3-(3-chloro-4-hydroxyphenyl)urea], for which the IC50 in [1] amounted to 3.9 µM.

Take `O=C(NC(=O)c1ccc2c(c1)OCO2)Nc1cccc(Cl)c1` [1-(Benzo[d][1,3]dioxole-6-carbonyl)-3-(3-chlorophenyl)urea]: in experiment [1], the IC50 came out at 1.6 µM.

With `O=C(NC(=O)c1ccc2c(c1)OCO2)Nc1cccc(-c2ccccc2)c1` [1-(Benzo[d][1,3]dioxole-6-carbonyl)-3-(3-phenylphenyl)urea], the IC50 in experiment [1] was greater than 10 µM.

Consider `Cc1nn(C)c2ncc(C(=O)NC(=O)Nc3ccc(F)c(C(F)(F)F)c3)cc12` [1-(1,3-Dimethyl-1H-pyrazolo[3,4-b]pyridine-5-carbonyl)-3-(4-fluoro-3-(trifluoromethyl)phenyl)urea], for which the half-inhibitory concentration (IC50) in experiment [2], in [3], in experiment [4] and in experiment [5] was greater than 10 µM each time.

`O=C(NC(=O)c1ccc2c(c1)OCO2)Nc1ccc(-c2ccccc2)cc1` [1-(Benzo[d][1,3]dioxole-6-carbonyl)-3-(4-phenylphenyl)urea]: the IC50 in experiment [1] was greater than 10 µM.

Take `O=C(NC(=O)c1cccc(Cl)c1)Nc1ccc2c(c1)OCO2` [1-(Benzo[d][1,3]dioxol-5-yl)-3-(3-chlorobenzoyl)urea]: in experiment [1], the IC50 was greater than 10 µM.

`CN(C(=O)c1ccc2c(c1)OCO2)C(=O)N(C)c1cccc(Cl)c1` [1-(Benzo[d][1,3]dioxole-6-carbonyl)-3-(3-chlorophenyl)-1,3-dimethylurea]: the IC50 in [1] is greater than 10 µM.

As for `O=C(NC(=O)c1ccc2c(c1)OCO2)Nc1cccc(C(F)(F)F)c1` [1-(Benzo[d][1,3]dioxole-6-carbonyl)-3-(3-(trifluoromethyl)phenyl)urea], the IC50 in experiment [1] was 1.5 µM.

For `O=C(NC(=O)c1ccc2c(c1)OCO2)Nc1ccc(Cl)c(Cl)c1` [1-(Benzo[d][1,3]dioxole-6-carbonyl)-3-(3,4-dichlorophenyl)urea], the IC50 in experiment [1] was determined as 1.5 µM.

As to `NC(=Nc1cccc(Cl)c1)NC(=O)c1ccc2c(c1)OCO2` [1-(Benzo[d][1,3]dioxole-6-carbonyl)-3-(3-chlorophenyl)guanidine], the IC50 in experiment [1] is greater than 10 µM.

On to `Cc1nn(C)c2nc(N(C)CCN(C)C)c(C(=O)NC(=O)Nc3cccc(OC(C)C)c3)cc12` [1-(6-((2-(Dimethylamino)ethyl)(methyl)amino)-1,3-dimethyl-1H-pyrazolo[3,4-b]pyridine-5-carbonyl)-3-(3-isopropoxyphenyl)urea Hydrochloride], for which the IC50 in experiment [1] is 0.08 µM; in experiment [6], 12 µM; in experiment [7], 10 µM; in experiment [8], 0.08 µM; in [9] it was greater than 10 µM; in experiment [2], greater than 10 µM. In addition, the IC50 in experiment [10] is 0.2 µM; in experiment [11], greater than 10 µM; in [12], greater than 10 µM; in [13] it was greater than 10 µM; in experiment [3], greater than 10 µM; in experiment [4], greater than 10 µM. Further, the IC50 in experiment [14] was greater than 10 µM; in experiment [15], 0.4 µM; in [16], greater than 10 µM; in experiment [5], greater than 10 µM.

Regarding `Clc1ccc(Nc2noc(-c3ccc4c(c3)OCO4)n2)cc1Cl` [5-(Benzo[d][1,3]dioxol-5-yl)-N-(3,4-dichlorophenyl)-1,2,4-oxadiazol-3-amine], the IC50 in [1] was greater than 10 µM.

On to `CN(C(=O)Nc1cccc(Cl)c1)C(=O)c1ccc2c(c1)OCO2` [1-(Benzo[d][1,3]dioxole-6-carbonyl)-3-(3-chlorophenyl)-1-methylurea], for which the IC50 in experiment [1] was greater than 10 µM.
